Where two headings read alike, the source gives them in different places.
Assays:
[1] = format: physicochemical
Description: Equilibrium Humidity Evaluation (40° C./75% RH for 10 Days)
100 mg portions of compound 1 salts (for inputs see table below) were placed in the relevant open vials. The powders were finely divided and distributed evenly over the base of the vial, such that equal material coverage across the panel was observed. These samples were then maintained 40°C. under 75% RH. The samples were sub-sampled at intervals of 5 and 10 days and analysed by ^1H NMR, HPLC, XRPD, DSC, TGA and PLM, for evidence of phase change or chemical degradation (FIG. 269-297).

[2] = Solubility determinations in SIF buffers (FaSSIF, FeSSIF, FaSSGF); format: physicochemical
Description: At this stage ca. 1 g of each front-runner salt form was prepared. Salt forms that offered significant solubility and stability advantages over the non-ionized API were prioritized. […] Scale Up
The solubility of the salts below was determined in FaSSIF, FeSSIF and FaSSGF by reference to the calibration curve of amorphous compound 1.
Separate portions of compound 1 were weighed out into aluminum boats and were charged to the relevant volumetric flasks. Solutions were made to volume with 1 to 1 (v/v) acetonitrile/purified water to give calibrants of known API concentrations and analyzed by HPLC, suitable to determine the concentration of compound 1 free base in the SIF buffer solubility study.
Each sample (150 mg) was suspended in the relevant SIF buffer (5.0 ml), to give a concentration of 30 mg/ml and maintain at 37° C. for 24 h. The pH was adjusted using 1 M HCl or 1 M NaOH, to ensure that the suspension remains in range.
Sample (1 ml) of the well-stirred representative suspensions was obtained at 1 h, 3 h, 6 h and 24 h and the pH was recorded. The pH of the bulk suspension was re-adjusted when necessary. The obtained sample from each vial was centrifuged, and the supernatant was analysed by HPLC (note, the analyte was diluted, when outside of the calibration range); XRPD analysis was performed on the wet sample pellet for evidence of form change, as well as on the oven-dried pellet (undervacuum at 40° C.).

COc1ccc2c(ccn2C[C@@H](C)N(C)C)c1.Cl [HCl salt]
HPLC peak RRT 0.93 ([1]; salt before storage (t = 0)): 0.01 | HPLC peak RRT 0.98 ([1]; salt before storage (t = 0)): 0.02 | HPLC peak RRT 0.99 ([1]; salt before storage (t = 0)): 0.01 | HPLC peak RRT 1.00 (reference peak) ([1]; salt before storage (t = 0)): 99.60 | HPLC peak RRT 1.20 ([1]; salt before storage (t = 0)): 0.01 | HPLC peak RRT 1.22 ([1]; salt before storage (t = 0)): 0.11 | HPLC peak RRT 1.26 ([1]; salt before storage (t = 0)): 0.16 | HPLC peak RRT 1.30 ([1]; salt before storage (t = 0)): 0.03 | HPLC peak RRT 1.32 ([1]; salt before storage (t = 0)): 0.01 | HPLC peak RRT 1.35 ([1]; salt before storage (t = 0)): 0.04 | HPLC peak RRT 0.93 ([1]; t = 5 d at 75% RH at 40° C.): 0.05 | HPLC peak RRT 0.98 ([1]; t = 5 d at 75% RH at 40° C.): 0.02 | HPLC peak RRT 1.00 (reference peak) ([1]; t = 5 d at 75% RH at 40° C.): 99.42 | HPLC peak RRT 1.20 ([1]; t = 5 d at 75% RH at 40° C.): 0.02 | HPLC peak RRT 1.22 ([1]; t = 5 d at 75% RH at 40° C.): 0.42 | HPLC peak RRT 1.26 ([1]; t = 5 d at 75% RH at 40° C.): 0.02 | HPLC peak RRT 1.28 ([1]; t = 5 d at 75% RH at 40° C.): 0.02 | HPLC peak RRT 1.35 ([1]; t = 5 d at 75% RH at 40° C.): 0.04 | HPLC peak RRT 0.93 ([1]; t = 10 d at 75% RH at 40° C.): 0.05 | HPLC peak RRT 0.98 ([1]; t = 10 d at 75% RH at 40° C.): 0.01 | HPLC peak RRT 1.00 (reference peak) ([1]; t = 10 d at 75% RH at 40° C.): 99.60 | HPLC peak RRT 1.22 ([1]; t = 10 d at 75% RH at 40° C.): 0.31 | HPLC peak RRT 1.35 ([1]; t = 10 d at 75% RH at 40° C.): 0.02

COc1ccc2c(ccn2C[C@@H](C)N(C)C)c1.O=C(O)c1ccccc1 [Compound 1.Benzoate]
HPLC peak RRT 1.00 (Compound 1) ([2]; input salt before FaSSGF): 99.64 | HPLC peak RRT 1.09 ([2]; input salt before FaSSGF): 0.03 | HPLC peak RRT 1.17 ([2]; input salt before FaSSGF): 0.03 | HPLC peak RRT 1.18 ([2]; input salt before FaSSGF): 0.10 | HPLC peak RRT 1.19 ([2]; input salt before FaSSGF): 0.02 | HPLC peak RRT 1.24 ([2]; input salt before FaSSGF): 0.06 | HPLC peak RRT 1.28 ([2]; input salt before FaSSGF): 0.01 | HPLC peak RRT 1.33 ([2]; input salt before FaSSGF): 0.10 | HPLC peak RRT 0.90 ([2]; t = 1 h in FaSSGF): 0.07 | HPLC peak RRT 0.92 ([2]; t = 1 h in FaSSGF): 0.05 | HPLC peak RRT 1.00 (Compound 1) ([2]; t = 1 h in FaSSGF): 99.28 | HPLC peak RRT 1.07 ([2]; t = 1 h in FaSSGF): 0.04 | HPLC peak RRT 1.09 ([2]; t = 1 h in FaSSGF): 0.06 | HPLC peak RRT 1.17 ([2]; t = 1 h in FaSSGF): 0.04 | HPLC peak RRT 1.19 ([2]; t = 1 h in FaSSGF): 0.15 | HPLC peak RRT 1.27 ([2]; t = 1 h in FaSSGF): 0.11 | HPLC peak RRT 1.28 ([2]; t = 1 h in FaSSGF): 0.05 | HPLC peak RRT 1.33 ([2]; t = 1 h in FaSSGF): 0.15 | HPLC peak RRT 0.97 ([2]; t = 3 h in FaSSGF): 0.04 | HPLC peak RRT 1.00 (Compound 1) ([2]; t = 3 h in FaSSGF): 99.62 | HPLC peak RRT 1.07 ([2]; t = 3 h in FaSSGF): 0.03 | HPLC peak RRT 1.17 ([2]; t = 3 h in FaSSGF): 0.15 | HPLC peak RRT 1.33 ([2]; t = 3 h in FaSSGF): 0.16 | HPLC peak RRT 1.00 (Compound 1) ([2]; t = 6 h in FaSSGF): 99.61 | HPLC peak RRT 1.17 ([2]; t = 6 h in FaSSGF): 0.12 | HPLC peak RRT 1.24 ([2]; t = 6 h in FaSSGF): 0.08 | HPLC peak RRT 1.25 ([2]; t = 6 h in FaSSGF): 0.04 | HPLC peak RRT 1.32 ([2]; t = 6 h in FaSSGF): 0.06 | HPLC peak RRT 1.33 ([2]; t = 6 h in FaSSGF): 0.09 | HPLC peak RRT 1.00 (Compound 1) ([2]; t = 24 h in FaSSGF): 99.73 | HPLC peak RRT 1.17 ([2]; t = 24 h in FaSSGF): 0.15 | HPLC peak RRT 1.32 ([2]; t = 24 h in FaSSGF): 0.07 | HPLC peak RRT 1.33 ([2]; t = 24 h in FaSSGF): 0.06

COc1ccc2c(ccn2C[C@@H](C)N(C)C)c1.O=C(O)c1ccccc1 [Benzoate salt]
HPLC peak RRT 1.00 (reference peak) ([1]; salt before storage (t = 0)): 99.64 | HPLC peak RRT 1.09 ([1]; salt before storage (t = 0)): 0.03 | HPLC peak RRT 1.16 ([1]; salt before storage (t = 0)): 0.03 | HPLC peak RRT 1.19 ([1]; salt before storage (t = 0)): 0.10 | HPLC peak RRT 1.20 ([1]; salt before storage (t = 0)): 0.02 | HPLC peak RRT 1.24 ([1]; salt before storage (t = 0)): 0.06 | HPLC peak RRT 1.26 ([1]; salt before storage (t = 0)): 0.01 | HPLC peak RRT 1.35 ([1]; salt before storage (t = 0)): 0.10 | HPLC peak RRT 0.98 ([1]; t = 5 d at 75% RH at 40° C.): 0.04 | HPLC peak RRT 1.00 (reference peak) ([1]; t = 5 d at 75% RH at 40° C.): 99.64 | HPLC peak RRT 1.16 ([1]; t = 5 d at 75% RH at 40° C.): 0.03 | HPLC peak RRT 1.19 ([1]; t = 5 d at 75% RH at 40° C.): 0.10 | HPLC peak RRT 1.20 ([1]; t = 5 d at 75% RH at 40° C.): 0.02 | HPLC peak RRT 1.26 ([1]; t = 5 d at 75% RH at 40° C.): 0.05 | HPLC peak RRT 1.35 ([1]; t = 5 d at 75% RH at 40° C.): 0.11 | HPLC peak RRT 0.98 ([1]; t = 10 d at 75% RH at 40° C.): 0.04 | HPLC peak RRT 1.00 (reference peak) ([1]; t = 10 d at 75% RH at 40° C.): 99.52 | HPLC peak RRT 1.08 ([1]; t = 10 d at 75% RH at 40° C.): 0.05 | HPLC peak RRT 1.16 ([1]; t = 10 d at 75% RH at 40° C.): 0.04 | HPLC peak RRT 1.19 ([1]; t = 10 d at 75% RH at 40° C.): 0.13 | HPLC peak RRT 1.20 ([1]; t = 10 d at 75% RH at 40° C.): 0.02 | HPLC peak RRT 1.26 ([1]; t = 10 d at 75% RH at 40° C.): 0.07 | HPLC peak RRT 1.35 ([1]; t = 10 d at 75% RH at 40° C.): 0.12

From US12319652B2, “Salts and solid forms of (R)-1-(5-methoxy-1H-indol-1-yl)-N,N-dimethylpropan-2-amine” (priority 2021, dated 2025)
